The source of these data is the Kinase Knowledgebase extract (Sharma et al. 2016).

Each structure is given as a SMILES string.

The term IC50 denotes the concentration at which inhibition is half-maximal.

The target of this assay is EGFR (human) (UniProt P00533). To be noted: kb.
Sequence of EGFR (human) (P00533 whole entry, looked up): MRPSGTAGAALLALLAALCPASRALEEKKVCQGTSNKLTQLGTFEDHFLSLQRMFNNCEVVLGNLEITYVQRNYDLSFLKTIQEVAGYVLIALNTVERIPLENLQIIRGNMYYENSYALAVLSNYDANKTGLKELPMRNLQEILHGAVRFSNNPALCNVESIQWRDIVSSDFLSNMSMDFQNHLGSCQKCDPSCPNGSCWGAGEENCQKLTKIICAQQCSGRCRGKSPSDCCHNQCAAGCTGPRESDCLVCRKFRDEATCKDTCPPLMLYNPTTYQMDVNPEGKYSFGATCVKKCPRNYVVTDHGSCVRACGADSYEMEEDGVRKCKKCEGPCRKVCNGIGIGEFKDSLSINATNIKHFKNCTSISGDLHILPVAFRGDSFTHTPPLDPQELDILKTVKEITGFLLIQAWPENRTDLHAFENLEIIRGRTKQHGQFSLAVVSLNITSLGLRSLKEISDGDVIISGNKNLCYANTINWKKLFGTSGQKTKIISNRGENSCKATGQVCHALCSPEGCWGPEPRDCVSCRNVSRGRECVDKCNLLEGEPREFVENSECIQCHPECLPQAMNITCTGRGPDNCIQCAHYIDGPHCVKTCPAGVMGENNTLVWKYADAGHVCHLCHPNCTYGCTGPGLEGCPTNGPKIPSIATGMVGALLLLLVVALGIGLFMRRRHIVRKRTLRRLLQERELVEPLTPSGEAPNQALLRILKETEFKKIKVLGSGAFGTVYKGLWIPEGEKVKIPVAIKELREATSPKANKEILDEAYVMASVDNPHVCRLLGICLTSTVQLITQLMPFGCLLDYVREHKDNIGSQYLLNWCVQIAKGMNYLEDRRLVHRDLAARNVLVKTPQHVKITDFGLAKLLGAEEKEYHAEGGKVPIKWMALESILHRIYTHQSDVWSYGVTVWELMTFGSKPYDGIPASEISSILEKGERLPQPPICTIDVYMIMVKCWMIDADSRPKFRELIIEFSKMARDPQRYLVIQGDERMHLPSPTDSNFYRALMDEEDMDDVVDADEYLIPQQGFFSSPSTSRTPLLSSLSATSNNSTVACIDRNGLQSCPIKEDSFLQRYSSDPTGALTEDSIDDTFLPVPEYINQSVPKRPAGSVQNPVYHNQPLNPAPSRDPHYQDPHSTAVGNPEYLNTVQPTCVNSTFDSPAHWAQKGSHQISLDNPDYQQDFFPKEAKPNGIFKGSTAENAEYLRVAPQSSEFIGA
For the molecule `COc1cc(OC[C@@H]2C[C@@H](O)CN2C(=O)CO)c2c(Nc3ccc(F)c(Cl)c3)ncnc2c1`, the IC50 is 0.156 µM.
The molecule `COc1cc(OC[C@H]2CCCN2C(=O)CO)c2c(Nc3ccc(F)c(Cl)c3)ncnc2c1` showed an IC50 of 0.091 µM.
The molecule `COc1cc(OC[C@H]2C[C@@H](O)CN2C(=O)CO)c2c(Nc3ccc(F)c(Cl)c3)ncnc2c1` showed an IC50 of 0.118 µM.
As for `COc1cc(OC[C@@H]2CCCN2C(=O)CN2CCCC2)c2c(Nc3ccc(F)c(Cl)c3)ncnc2c1`, the IC50 turned out to be 0.13 µM.
With `COc1cc(OC[C@@H]2C[C@H](O)CN2C(=O)CN(C)C)c2c(Nc3ccc(F)c(Cl)c3)ncnc2c1` the figure was 0.112 µM; with `CCOCCOc1cc(OC[C@H]2CCCN2C(=O)CO)c2c(Nc3ccc(F)c(Cl)c3)ncnc2c1`, 0.099 µM; with `COCC(=O)N1C[C@@H](O)C[C@@H]1COc1cc(OC)cc2ncnc(Nc3ccc(F)c(Cl)c3)c12`, 0.288 µM.
The molecule `COc1cc(OC[C@@H]2CCCN2C(=O)CN(C)C)c2c(Nc3ccc(F)c(Cl)c3)ncnc2c1` came in with an IC50 of 0.141 µM.
Take `COc1cc(OC[C@H]2CCCN2C(C)=O)c2c(Nc3ccc(F)c(Cl)c3)ncnc2c1`: the IC50 came out at 0.028 µM.
Molecule `COc1cc(OC[C@H]2CCCN2C(=O)CN(C)C)c2c(Nc3ccc(F)c(Cl)c3)ncnc2c1` gave an IC50 of 0.138 µM.
With `COc1cc(OC[C@H]2C[C@H](O)CN2C(C)=O)c2c(Nc3ccc(F)c(Cl)c3)ncnc2c1` the figure was 0.075 µM; with `O=C(CO)N1CCC[C@@H]1COc1cc(OCCO)cc2ncnc(Nc3ccc(F)c(Cl)c3)c12`, 0.128 µM.
